Results on 29 compounds are retold here after patent publication US7067665B2, “Oxybenzamide derivatives useful for inhibiting factor Xa or Vlla” (Sanofi-Aventis Deutschland GmbH, priority 2000, dated 2006).

Molecules are shown by their SMILES. pKi: −log10 of the molar value.

T1 sequence (P00742 235-488 limits assumed): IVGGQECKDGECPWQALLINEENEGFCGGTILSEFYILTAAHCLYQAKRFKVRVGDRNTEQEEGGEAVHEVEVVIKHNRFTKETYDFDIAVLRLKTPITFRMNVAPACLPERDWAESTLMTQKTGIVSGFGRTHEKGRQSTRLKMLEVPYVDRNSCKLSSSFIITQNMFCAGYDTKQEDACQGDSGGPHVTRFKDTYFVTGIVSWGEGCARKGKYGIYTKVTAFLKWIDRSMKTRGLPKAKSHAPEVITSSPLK
T1 sequence (P00742 41-179 partner limits assumed): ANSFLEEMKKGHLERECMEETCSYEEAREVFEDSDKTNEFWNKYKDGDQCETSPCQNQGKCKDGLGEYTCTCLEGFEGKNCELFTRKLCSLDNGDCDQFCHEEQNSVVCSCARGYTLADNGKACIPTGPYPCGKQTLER

The first test concerns the target T1, human factor Xa (Homo sapiens, UniProt P00742).
T1 construct: 25 μl human factor Xa (Enzyme Research Laboratories, Inc; South Bend, Ind.); purchased Enzyme Research Laboratories, Inc; South Bend, Ind
Put plainly: Factor Xa chromogenic assay (substrate S-2765).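 Note: purified enzyme, compound preincubated with the enzyme for 10 min before substrate addition starts the reaction.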 It is filed as biochemical. The conditions noted are these: inhibition constant for inhibition of factor Xa; IC50 corrected for substrate competition; 25° C., enzyme 0.5 nM, substrate 140 μM; read-out: Ki(FXa).
With `COc1ccc(C(=O)N2CCN(Cc3ccccn3)CC2)cc1OCCc1ccc(Cl)cc1Cl` [Example 2, {3-[2-(2,4-Dichlorophenyl)-ethoxy]-4-methoxy-phenyl}-(4-pyridin-2-ylmethyl-piperazin-1-yl)-methanone], the pKi (usually the negative decadic logarithm of the Ki, by convention in mol/L) is 5.81.

For the compound `COc1ccc(C(=O)N2CCN(c3ccncc3)CC2)cc1OCCc1ccc(Cl)cc1Cl` [Example 3, {3-[2-(2,4-Dichlorophenyl)-ethoxy]-4-methoxy-phenyl}-(4-pyridin-4-yl-piperazin-1-yl)-methanone], the pKi was 5.27. For `COc1cc(C(=O)N2CCN(Cc3ccncc3)CC2)cc(OCCc2ccc(Cl)cc2Cl)c1OC` [Example 5, {3-[2-(2,4-Dichloro-phenyl)-ethoxy]-4,5-dimethoxy-phenyl}-(4-pyridin-4-ylmethyl-piperazin-1-yl)-methanone], the negative logarithm of the Ki (pKi) is 6.78. Take `CCOc1ccc(C(=O)N2CCN(Cc3ccncc3)CC2)cc1OCCc1ccc(Cl)cc1Cl` [Example 9, {3-[2-(2,4-Dichloro-phenyl)-ethoxy]-4-ethoxy-phenyl}-(4-pyridin-4-ylmethyl-piperazin-1-yl)-methanone]: the pKi is 6.51. Turning to `COc1ccc(C(=O)N2CCN(Cc3ccc(C#N)cc3)CC2)cc1OCCc1ccc(Cl)cc1Cl` [Example 11, 4-(4-{3-[2-(2,4-Dichloro-phenyl)-ethoxy]-4-methoxy-benzoyl}-piperazin-1-ylmethyl)-benzonitrile], the pKi is 5.86.

Consider `COc1ccc(C(=O)N2CCN(CC(=O)N(C)C)CC2)cc1OCCc1ccc(Cl)cc1Cl` [Example 13, 2-(4-{3-[2-(2,4-Dichlorophenyl)-ethoxy]-4-methoxy-benzoyl}-piperazin-1-yl)-N,N-dimethyl-acetamide], for which the pKi was 5.85. As for `COc1ccc(C(=O)N2CCN(CC(=O)N3CCCC3)CC2)cc1OCCc1ccc(Cl)cc1Cl` [Example 14, 2-(4-{3-[2-(2,4-Dichlorophenyl)-ethoxy]-4-methoxy-benzoyl}-piperazin-1-yl)-1-pyrrolidin-1-yl-ethanone], the negative logarithm of the Ki (pKi) was 5.66. For `COc1ccc(C(=O)NCCCN2CCCCC2)cc1OCCc1ccc(Cl)cc1Cl` [Example 15, 3-[2-(2,4-Dichlorophenyl)-ethoxy]-4-methoxy-N-(3-piperidin-1-yl-propyl)-benzamide], the pKi is 5.65. For the compound `COc1ccc(C(=O)NCCN2CCCCC2)cc1OCCc1ccc(Cl)cc1Cl` [Example 16, 3-[2-(2,4-Dichloro-phenyl)-ethoxy]-4-methoxy-N-(2-piperidin-1-yl-ethyl)-benzamide], the pKi is 5.37.

As for `Cc1ccc(C(=O)N2CCN(Cc3cc[n+]([O-])cc3)CC2)cc1OCCc1ccc(Cl)cc1Cl` [Example 17, {3-[2-(2,4-Dichloro-phenyl)-ethoxy]-4-methyl-phenyl}-[4-(1-oxy-pyridin-4-ylmethyl)-piperazin-1-yl]-methanone], the pKi was 6.39.

For the compound `O=C(c1ccc(CO)c(OCCc2ccc(Cl)cc2Cl)c1)N1CCN(Cc2cc[n+]([O-])cc2)CC1` [Example 18, {3-[2-(2,4-Dichloro-phenyl)-ethoxy]-4-hydroxymethyl-phenyl}-[4-(1-oxy-pyridin-4-ylmethyl)-piperazin-1-yl]-methanone], the pKi is 5.21. For `COc1ccc(C(=O)NCC2CC(c3ccncc3)=NO2)cc1OCCc1ccc(Cl)cc1Cl` (centres unmarked) [Example 24, 3-[2-(2,4-Dichloro-phenyl)-ethoxy]-4-methoxy-N-(3-pyridin-4-yl-4,5-dihydro-isoxazol-5-ylmethyl)-benzamide], the negative-log Ki (pKi) is 5.95. Take `COc1ccc(C(=O)NCC2CC(c3cc[n+]([O-])cc3)=NO2)cc1OCCc1ccc(Cl)cc1Cl` (centres unmarked) [Example 28, 3-[2-(2,4-Dichloro-phenyl)-ethoxy]-N-[3-(1-hydroxy-pyridin-4-yl)-4,5-dihydro-isoxazol-5-ylmethyl]-4-methoxy-benzamide]: the pKi was 6.02. The same measure, in the same setting: the figure for `COc1ccc(C(=O)NCC2CCC(CN)CC2)cc1OCCc1ccc(Cl)cc1Cl` (centres unmarked) [Example 31, N-(4-Aminomethyl-cyclohexylmethyl)-3-[2-(2,4-dichloro-phenyl)-ethoxy]-4-methoxy-benzamide] is 5.03; for `COc1ccc(C(=O)NCC2CCN(C3CCCC3)CC2)cc1OCCc1ccc(Cl)cc1Cl` [Example 54, N-(1-Cyclopentyl-piperidin-4-ylmethyl)-3-[2-(2,4-dichloro-phenyl)-ethoxy]-4-methoxy-benzamide] it is 5.19; for `COc1ccc(C(=O)NCC2CCN(C3CCCCC3)CC2)cc1OCCc1ccc(Cl)cc1Cl` [Example 56] it is 5.36. Consider `COc1ccc(C(=O)NCC2CCN(C3CCCCCC3)CC2)cc1OCCc1ccc(Cl)cc1Cl` [Example 57], for which the pKi was 5.21. Take `COc1ccc(C(=O)NCC2CCN(c3cc[n+]([O-])cc3)CC2)cc1OCCc1ccc(Cl)cc1Cl` [Example 66]: the pKi was 5.83.

For the compound `COc1ccc(C(=O)NCC2CCN(c3ccccn3)CC2)cc1OCCc1ccc(Cl)cc1Cl` [Example 68, 3-[2-(2,4-Dichloro-phenyl)-ethoxy]-4-methoxy-N-(3,4,5,6-tetrahydro-2H-[1,2′]bipyridinyl-4-ylmethyl)-benzamide], the pKi is 5.52.

With `O=C(NCC1CCN(c2ccncc2)CC1)c1cc(OCCc2ccc(Cl)cc2Cl)ccc1[N+](=O)[O-]` [Example 84], the pKi is 5.31.

Still in this test, the particulars now being: read-out: Ki(FXa).
As for `Cc1ccc(C(=O)N2CCN(Cc3ccncc3)CC2)cc1OCCc1ccc(Cl)cc1Cl` [Example 4, {3-[2-(2,4-Dichlorophenyl)-ethoxy]-4-methyl-phenyl}-(4-pyridin-4-ylmethyl-piperazin-1-yl)-methanone], the pKi is 6.53. Take `COc1ccc(C(=O)N2CCN(Cc3ccc(F)cc3)CC2)cc1OCCc1ccc(Cl)cc1Cl` [Example 12, {3-[2-(2,4-Dichlorophenyl)-ethoxy]-4-methoxy-phenyl}-[4-(4-fluorobenzyl)-piperazin-1-yl]-methanone]: the pKi was 5.52. The same measure, in the same setting: to `COc1cc(C(=O)N2CCN(Cc3ccncc3)CC2)cc(OCCc2ccc(Cl)cc2Cl)c1Br` [Example 19, {4-Bromo-3-[2-(2,4-dichlorophenyl)-ethoxy]-5-methoxyphenyl}-(4-pyridin-4-ylmethyl-piperazin-1-yl)-methanone] belongs 7.02; to `O=C(NCC1CCN(c2ccncc2)CC1)c1cc(OCCc2ccc(Cl)cc2Cl)ccc1Cl` [Example 81], 6.62. For the compound `O=C(NCC1CCN(c2ccncc2)CC1)c1cccc(OCCc2ccc(Cl)cc2Cl)n1` [Example 85], the pKi is 6.52.

`O=C(NCC1CCN(c2ccncc2)CC1)c1cc(O)c(Br)c(OCCc2ccc(Cl)cc2Cl)c1` [Example 86]: the pKi is 7.59. Same read-out and setting: to `O=C(NCC1CCN(c2ccncc2)CC1)c1cncc(OCCc2ccc(Cl)cc2Cl)c1` [Example 87] belongs 7.15. As for `O=C(Nc1cccc(C(=O)NCC2CCN(c3ccncc3)CC2)c1)Nc1ccc(Cl)cn1` [Example 91, 3-[3-(5-Chloro-pyridin-2-yl)-ureido]-N-(3,4,5,6-tetrahydro-2H-[1,4′]bipyridinyl-4-ylmethyl)-benzamide], the pKi was 5.86.

For the compound `COc1ccc(C(=O)NCC2CCN(c3ccncc3)CC2)cc1OCc1cc(-c2ccc(Cl)s2)on1` [Example 93, 3-[5-(5-Chloro-thiophen-2-yl)-isoxazol-3-ylmethoxy]-4-methoxy-N-(3,4,5,6-tetrahydro-2H-[1,4′]bipyridinyl-4-ylmethyl)-benzamide], the pKi was 6.73.
